US9962384B1, “Levosimendan compound for preventing or treating tau-related diseases” (KOREA INSTITUTE OF SCIENCE AND TECHNOLOGY, priority 2017, dated 2018)

Tests used:
tau [1] = target: T1, tau (Homo sapiens, UniProt P10636); assay: Tau phosphorylation by Western blot of tau-BiFC cell lysates; assay type: cell-based; design: fused on or other part: N-terminal and C-terminal non-fluorescent fragments of Venus fused to tau (BiFC reporter handles); conditions: forskolin 30 μM, 36 hours
Procedure: In order to confirm whether the levosimendan compound would show tau aggregation inhibitory activity by inhibiting tau phosphorylation, Tau-BiFC cells were treated with the tau aggregation inducer forskolin (treatment concentration: 30 μM) and the levosimendan compound (treatment concentration: 15 μM). After 36 hours, the tau-BiFC cell lysates were analyzed by Western blot analysis to measure tau phosphorylation.

tau [2] = target: T1, tau; assay: Intracellular tau aggregation in tau-BiFC cell model (forskolin-induced); assay type: cell-based; design: fused on or other part: N-terminal and C-terminal non-fluorescent fragments of Venus fused to tau (BiFC reporter handles); conditions: forskolin 30 μM; for concentration dependence of tau-BiFC fluorescence value: 1-100 μM; for tau aggregation in tau-BiFC cells (Example 5, metabolites comparison): varying concentrations
Procedure: Furthermore, the following examples were performed based on tau-BiFC cell model. The tau-BiFC cell model is a reliable system for monitoring the interaction between tau oligomers, and is a Venus protein-based BiFC method in which the N-terminal and C-terminal non-fluorescent fragments of Venus protein are fused to tau. A further detailed definition and method for the tau-BiFC cell model are as described in Korean Patent No. 10-1546485.
(§1) To screen a new tau aggregation inhibitor, tau-BiFC cell model making it possible to easily observe tau oligomer formation in living cells was treated an FDA-approved drug library (a total of 1018 compounds). As shown in a schematic view of FIG. 1, tau-BiFC cells were plated on a 384-well plate. On the next day, the tau-BiFC cells were treated with FDA-approved drugs (treatment concentration: 10 μM) together with the compound forskolin (treatment concentration: 30 μM) that activates tau kinase PKA to induce tau aggregation. After 46 hours, the tau aggregation inhibitory activities of the drugs were analyzed, and cell viability by the compounds was analyzed by cell nucleus staining with Hoechst. […] To further confirm the tau aggregation inhibitory activity of the selected levosimendan, tau-BiFC cells were treated with DMSO, MB or levosimendan (treatment concentration: 10 μM) together with the compound forskolin (treatment concentration: 30 μM) that activates tau kinase PKA to induce tau aggregation. At this time, methylene blue (MB) known to show tau aggregation inhibitory activity was used as a comparative compound (positive control). After 48 hours, the tau aggregation inhibitory activity of the compound was analyzed, and cell viability by the compound was analyzed by cell nucleus staining with Hoechst.
(§2) In addition, in order to further confirm the tau aggregation inhibitory activity of the selected levosimendan compound in living cells, tau-BiFC cells were treated with the tau inducer forskolin (treatment concentration: 30 μM) together with 1, 3, 10, 30 or 100 μM of the levosimendan compound. After 48 hours, tau aggregation reactions in the cells were analyzed by analysis of tau-BiFC response, and cell viability was analyzed to determine the toxicity of the compound.
The levosimendan compound has two metabolite forms ([…] and activated (OR-1896)). […] Specifically, tau-BiFC cells were treated with varying concentrations of each of MB, levosimendan, OR-1855 and OR-1896 compounds together with the tau aggregation inducer forskolin (treatment concentration: 30 μM). After 48 hours, the extent of tau aggregation in the cells was analyzed.

tau-BiFC cells = assay: Cell viability by cell nucleus staining with Hoechst; assay type: cell-based; conditions: forskolin 30 μM; for cytotoxicity / cell viability (number of nuclei stained with Hoechst): 10 μM compound, 48 hours
Procedure: as §1
Furthermore, it could be seen that the fluorescence value of the test group (levosimendan) decreased, similar to that of the positive control group (MB).
as §2

tau kinase = assay: Tau kinase activity
tau aggregates = tau aggregates (Homo sapiens, UniProt P10636); assay: In vitro dissociation of tau aggregates; assay type: biochemical; conditions: Tau-Agg+100 uM DTT+0.1 mg/mL Heparin, 37° C., varying concentrations
Procedure: (§3) Thus, whether the levosimendan compound would be involved in the tau aggregation process to inhibit tau aggregation was examined. Specifically, whether the levosimendan compound would inhibit the tau aggregation process was analyzed in vitro, and whether the levosimendan compound would prevent additional aggregation of aggregated tau and dissociate the aggregation was analyzed in vitro. The tau aggregation process (Tau pre-Agg+100 uM DTT+0.1 mg/mL Heparin, incubated at 37° C.) in vitro was treated with varying concentrations of the levosimendan compound, and the degree of tau aggregation was analyzed with ThS (Thioflavin S). The ThS is a dye capable of measuring tau aggregation in vitro in real time, and is used as a fluorescence probe that detects β-sheet aggregation.

tau [3] = target: T1, tau; assay: In vitro tau aggregation with ThS (Thioflavin S); assay type: biochemical; conditions: Tau pre-Agg+100 uM DTT+0.1 mg/mL Heparin, 37° C.
Procedure: as §3

[4] = tested on: mouse cerebral cortical neuronal cells; assay: Neuronal cell protection against TauK18P301L damage; assay type: cell-based; conditions: 10 μM, 2 hours before TauK18P301L 20 μg/mL; E18, DIV8
Text: Whether the levosimendan compound would protect neuronal cells from neuronal cell damage was examined.

[5] = 15 μM, vs forskolin-treated cells

T1 sequence (P10636 1-441 isoform P10636-8): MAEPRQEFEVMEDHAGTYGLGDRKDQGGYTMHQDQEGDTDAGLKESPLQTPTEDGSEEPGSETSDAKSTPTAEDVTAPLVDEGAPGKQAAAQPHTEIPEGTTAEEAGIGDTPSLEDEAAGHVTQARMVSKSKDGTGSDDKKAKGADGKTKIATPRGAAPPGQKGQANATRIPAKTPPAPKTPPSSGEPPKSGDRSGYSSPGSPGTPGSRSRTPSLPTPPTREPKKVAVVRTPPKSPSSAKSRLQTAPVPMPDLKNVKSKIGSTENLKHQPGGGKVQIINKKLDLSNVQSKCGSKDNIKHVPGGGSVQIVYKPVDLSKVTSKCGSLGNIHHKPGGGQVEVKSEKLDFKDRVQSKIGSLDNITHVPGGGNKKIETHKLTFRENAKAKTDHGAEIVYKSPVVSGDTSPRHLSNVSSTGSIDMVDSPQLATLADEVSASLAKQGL
Sequence of tau aggregates (P10636 1-441 isoform P10636-8): as above

CN(C)c1ccc2nc3ccc(=[N+](C)C)cc-3sc2c1 [MB, methylene blue]
tau phosphorylation compared to forskolin-treated cells (tau [1]): decreased compared to that in the forskolin-treated cells
concentration dependence of tau-BiFC fluorescence value (tau [2]; 48 hours): concentration-dependent decrease in the fluorescence value
cytotoxicity / cell viability (number of nuclei stained with Hoechst) (tau-BiFC cells): decreased
cytotoxicity / cell viability (number of nuclei stained with Hoechst) (tau-BiFC cells; listed as methylene blue): cytotoxicity higher than that of the levosimendan compound

C[C@@H]1CC(=O)NN=C1c1ccc(N)cc1 [OR-1855]
tau aggregation in tau-BiFC cells (Example 5, metabolites comparison) (tau [2]; 48 hours): did not show tau aggregation inhibitory activity

CC(=O)Nc1ccc(C2=NNC(=O)C[C@H]2C)cc1 [OR-1896]
tau aggregation in tau-BiFC cells (Example 5, metabolites comparison) (tau [2]; 48 hours): did not show tau aggregation inhibitory activity

C[C@@H]1CC(=O)NN=C1c1ccc(NN=C(C#N)C#N)cc1 [levosimendan]
changes in tau kinase activity (tau kinase): did not affect changes in tau kinase activity
effect on tau aggregates in vitro (tau aggregates): had the effect of dissociating tau aggregates
IC50 (tau [3]): 4.71 µM
tau phosphorylation decrease at Ser199 (tau [1]; [5]): about 34%
tau phosphorylation decrease at Ser396 (tau [1]; [5]): about 35%
tau phosphorylation compared to forskolin-treated cells (tau [1]): decreased compared to that in the forskolin-treated cells
tau-BiFC fluorescence value (RFU), tau aggregation inhibitory activity (tau [2]; 10 μM compound, 48 hours): decreased compared to that of the negative control group (DMSO)
tau aggregation inhibitory activity in drug library screening (tau [2]; 10 μM, 46 hours, 384-well plate): tau aggregation inhibitory activity equal to that of methylene blue (MB)
concentration dependence of tau-BiFC fluorescence value (tau [2]; 48 hours): concentration-dependent decrease in the fluorescence value
IC50 (tau [2]; 1, 3, 10, 30 or 100 μM compound, 48 hours, read-out: IC50 of decrease in tau-BiFC fluorescence value): 2.2 µM
tau aggregation in tau-BiFC cells (Example 5, metabolites comparison) (tau [2]; 48 hours): decreased similar to that in the positive control group (MB)
damage to neuronal cells, neuronal cell morphology and neurite length [4]: decreased compared to that in the negative control group (DMSO) and the positive control group (MB)
cell viability in drug library screening (tau-BiFC cells; 10 μM, 46 hours): cell viability equal to that of drug-untreated normal cells
